Numbers after ± are expanded uncertainties.
Details: Crystal; visual observation

Nc1ccccn1 [2-pyridinamine]
Normal melting temperature: 57.6 ± 0.6 °C

Nc1cccc(N)n1 [pyridine-2,6-diamine]
Normal melting temperature: 121.7 ± 1.2 °C

From the NIST ThermoML archive (doi:10.1021/je8007843)
